# Test results reported in ChEMBL document CHEMBL5512664, “Emerging and Re-emerging Warheads for Targeted Covalent Inhibitors: An Update” (J Med Chem, 2024).
# pIC50, pKi: −log10 of the molar value.
# Tests used:
# [1] = Cytotoxicity against African green monkey Vero E6 cells; assay type: toxicity, cell-based, Vero C1008; settings: chlorocebus sabaeus
# Carbonic anhydrase 2 [2] = molecular target: T1, Carbonic anhydrase 2 (Homo sapiens, UniProt P00918); assay: Binding affinity to carbonic anhydrase II (unknown origin) fragment assessed as rate of protein modification by measuring inactivation rate constant (Kinact)
# Carbonic anhydrase 2 [3] = molecular target: T1, Carbonic anhydrase 2; assay: Rate of protein modification at carbonic anhydrase II (unknown origin) fragment assessed as inhibition constant
# [4] = Reactivity of SuTEx assessed as aryl-AG modifications by measuring half life by HLPC analysis; assay type: physicochemical
# [5] = GSH reactivity in PBS buffer at pH 7.4 assessed as half life; assay type: ADME
# [6] = molecular target: T2, Replicase polyprotein 1ab (Severe acute respiratory syndrome coronavirus 2, UniProt P0DTD1); assay: Inhibition of SARS-CoV-2 papain-like protease (PLpro) using fluorogenic peptide substrate by fluorescent assay
# [7] = Reactivity rate at cyclic sulfonamide assessed as rate constant by CSA sulfenic-acid model; assay type: physicochemical
# [8] = molecular target: T2, Replicase polyprotein 1ab; assay: Binding affinity to SARS-CoV-2 cysteine protease-Mpro assessed as inhibition constant
# [9] = molecular target: Replicase polyprotein 1ab (Severe acute respiratory syndrome coronavirus 2) (UniProt P0DTD1); assay: Binding affinity to SARS-CoV-2 cysteine protease-Mpro assessed as inactivation rate constant (Kinact)
# [10] = Reactivity of SuTEx assessed as aryl-LG modifications by measuring half life by HLPC analysis; assay type: physicochemical
# [11] = molecular target: E3 ubiquitin-protein ligase Mdm2 (Homo sapiens) (UniProt Q00987); assay: Binding affinity to human HDM2 assessed as rate constant of covalent modification (Kinact)
# Chain of E3 ubiquitin-protein ligase Mdm2 (Homo sapiens) (Q00987 whole entry, looked up): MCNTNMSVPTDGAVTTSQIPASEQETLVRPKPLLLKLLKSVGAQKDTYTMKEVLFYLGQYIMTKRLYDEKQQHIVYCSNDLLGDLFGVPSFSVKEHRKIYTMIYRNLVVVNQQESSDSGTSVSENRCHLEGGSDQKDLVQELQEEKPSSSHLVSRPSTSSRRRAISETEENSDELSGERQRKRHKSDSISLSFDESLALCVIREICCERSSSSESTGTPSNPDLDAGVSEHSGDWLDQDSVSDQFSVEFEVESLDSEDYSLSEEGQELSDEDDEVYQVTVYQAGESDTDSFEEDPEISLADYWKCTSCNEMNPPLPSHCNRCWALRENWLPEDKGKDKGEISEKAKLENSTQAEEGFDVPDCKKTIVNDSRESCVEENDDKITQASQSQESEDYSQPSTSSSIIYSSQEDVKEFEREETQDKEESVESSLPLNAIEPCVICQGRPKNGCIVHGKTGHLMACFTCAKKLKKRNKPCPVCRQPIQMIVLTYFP
# [12] = molecular target: E3 ubiquitin-protein ligase Mdm2 (Homo sapiens) (UniProt Q00987); assay: Binding affinity to human HDM2 assessed as second-order rate constant (Kinact/Kd) ratio
# [13] = molecular target: NAD-dependent protein deacylase sirtuin-5, mitochondrial (Homo sapiens) (UniProt Q9NXA8); assay: Inhibition of SIRT5 (unknown origin) assessed as reaction rate Kinact/Ki ratio
# Chain of NAD-dependent protein deacylase sirtuin-5, mitochondrial (Homo sapiens) (Q9NXA8 37-310 limits assumed): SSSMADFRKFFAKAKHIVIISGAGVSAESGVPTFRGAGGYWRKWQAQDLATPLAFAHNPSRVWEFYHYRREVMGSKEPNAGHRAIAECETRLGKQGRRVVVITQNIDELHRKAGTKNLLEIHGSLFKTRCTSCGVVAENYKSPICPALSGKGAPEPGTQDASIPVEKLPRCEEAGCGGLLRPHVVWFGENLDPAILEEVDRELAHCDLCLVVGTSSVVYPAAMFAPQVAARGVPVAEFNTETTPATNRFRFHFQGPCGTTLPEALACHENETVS
# [14] = molecular target: NAD-dependent protein deacylase sirtuin-5, mitochondrial (Homo sapiens) (UniProt Q9NXA8); assay: Inhibition of SIRT5 (unknown origin) assessed as inactivation rate constant (Kinact)
# [15] = Chemical stability of the compound in pH 7.4 buffer assessed as half life; assay type: physicochemical
# [16] = Cysteine-reactive in peptide assessed as half life using fluorogenic monochlorobimane/zinc complex by measuring fluorescence intensity; assay type: ADME; settings: cysteine-containing peptide
# [17] = GSH reactivity in PBS buffer at pH 8 assessed as second-order reaction rate constants upto 200 uM by DTNB assay; assay type: ADME; settings: pH 8, 200 µM
# [18] = molecular target: Tyrosine-protein kinase BTK (Homo sapiens, UniProt Q06187); settings: A-431, dose 1.0 µM
# Chain of Tyrosine-protein kinase BTK (Q06187 whole entry): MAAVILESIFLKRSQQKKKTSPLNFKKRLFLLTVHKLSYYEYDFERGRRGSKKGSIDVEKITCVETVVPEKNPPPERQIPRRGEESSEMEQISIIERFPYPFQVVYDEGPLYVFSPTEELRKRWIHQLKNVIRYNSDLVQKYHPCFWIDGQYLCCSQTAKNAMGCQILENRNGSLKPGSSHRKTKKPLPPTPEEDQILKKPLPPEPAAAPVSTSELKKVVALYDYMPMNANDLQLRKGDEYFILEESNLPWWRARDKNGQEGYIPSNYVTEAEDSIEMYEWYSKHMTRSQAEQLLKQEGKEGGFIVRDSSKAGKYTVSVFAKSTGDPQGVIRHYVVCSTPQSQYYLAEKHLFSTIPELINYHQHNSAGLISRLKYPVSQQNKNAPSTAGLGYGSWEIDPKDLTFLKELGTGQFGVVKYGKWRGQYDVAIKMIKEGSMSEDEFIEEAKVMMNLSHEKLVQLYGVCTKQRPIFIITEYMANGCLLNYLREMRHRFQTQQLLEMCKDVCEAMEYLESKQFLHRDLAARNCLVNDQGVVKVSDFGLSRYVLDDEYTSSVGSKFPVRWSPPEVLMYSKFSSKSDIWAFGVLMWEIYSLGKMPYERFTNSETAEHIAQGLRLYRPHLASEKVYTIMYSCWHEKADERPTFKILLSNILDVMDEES
# [19] = molecular target: T3, Tyrosine-protein kinase ABL1 (Homo sapiens, UniProt P00519); assay: Inhibition of recombinant ABL kinase (unknown origin) assessed as inhibition constant
# T3 sequence (P00519 whole entry): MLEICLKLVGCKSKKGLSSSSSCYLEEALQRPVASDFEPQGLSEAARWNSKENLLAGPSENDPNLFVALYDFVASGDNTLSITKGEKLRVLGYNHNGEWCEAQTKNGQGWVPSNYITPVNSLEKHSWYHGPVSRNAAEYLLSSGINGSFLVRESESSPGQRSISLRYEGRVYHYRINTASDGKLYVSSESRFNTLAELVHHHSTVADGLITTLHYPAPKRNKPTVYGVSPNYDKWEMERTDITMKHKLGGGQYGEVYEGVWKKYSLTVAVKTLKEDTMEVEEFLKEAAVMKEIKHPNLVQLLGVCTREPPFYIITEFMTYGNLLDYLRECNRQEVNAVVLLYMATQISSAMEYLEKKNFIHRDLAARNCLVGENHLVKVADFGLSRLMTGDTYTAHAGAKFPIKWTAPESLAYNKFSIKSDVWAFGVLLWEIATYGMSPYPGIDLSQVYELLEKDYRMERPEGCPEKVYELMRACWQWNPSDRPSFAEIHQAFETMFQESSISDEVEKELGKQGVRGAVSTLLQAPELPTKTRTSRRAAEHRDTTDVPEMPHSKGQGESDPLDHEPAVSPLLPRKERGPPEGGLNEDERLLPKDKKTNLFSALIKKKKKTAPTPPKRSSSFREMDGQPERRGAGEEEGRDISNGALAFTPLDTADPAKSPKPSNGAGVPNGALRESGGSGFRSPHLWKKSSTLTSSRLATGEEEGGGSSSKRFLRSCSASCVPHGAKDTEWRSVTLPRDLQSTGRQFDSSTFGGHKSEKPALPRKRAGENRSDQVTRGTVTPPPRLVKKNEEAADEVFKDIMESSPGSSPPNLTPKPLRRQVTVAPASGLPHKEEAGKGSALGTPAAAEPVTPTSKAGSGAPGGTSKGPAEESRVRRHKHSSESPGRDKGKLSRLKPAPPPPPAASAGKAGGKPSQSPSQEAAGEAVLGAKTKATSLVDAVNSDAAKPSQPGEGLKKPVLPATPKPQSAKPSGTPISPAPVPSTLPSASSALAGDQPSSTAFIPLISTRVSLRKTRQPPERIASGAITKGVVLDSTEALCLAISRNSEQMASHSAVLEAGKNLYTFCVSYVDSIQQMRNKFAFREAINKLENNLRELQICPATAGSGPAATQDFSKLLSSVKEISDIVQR
# [20] = molecular target: T3, Tyrosine-protein kinase ABL1; assay: Inhibition of recombinant ABL kinase (unknown origin) assessed as inactivation rate constant (Kinact)
# [21] = molecular target: T3, Tyrosine-protein kinase ABL1; assay: Inhibition of wild type N-terminal His tagged ABL kinase (unknown origin) using fluorescence-labelled substrate by off-chip mobility shift assay
# Homo sapiens [22] = organism: Homo sapiens; assay: Binding affinity to wild type Hsp90 (unknown origin) assessed as rate of modification half life
# Homo sapiens [23] = organism: Homo sapiens; assay: Inhibition of wild type Hsp90 (unknown origin) assessed as inactivation rate constant (Kinact)
# [24] = GSH reactivity in PBS buffer at pH 8 at 14 degC assessed as half life upto 200 uM; assay type: ADME
structure (smiles),measurement,setting,value
C[C@@H](NC(=O)[C@H](c1cccnc1)N(C(=O)C(Cl)Cl)c1ccc(-c2ccccc2)cc1)c1ccccc1,CC50,[1],> 100 µM
CC(NC(=O)c1ccc(S(=O)(=O)F)cc1)c1cccc(S(N)(=O)=O)c1 (configuration not stated),Kinact,Carbonic anhydrase 2 [2],0.45 10^-5/s
same,pKi,Carbonic anhydrase 2 [3],4.48
COc1ccc(-c2ncn(S(=O)(=O)c3ccc(OC)cc3)n2)cc1,half-life,[4],3.04 h
COc1cc(OC)cc(C(=O)C23CC2C3)c1 (configuration not stated),half-life,[5],32.7 h
C=CCSc1nc2sc3c(c2c(=O)n1CC)CCc1ccccc1-3,half-life,[5],0.683 h
same,pIC50,[6],6.10
COc1ccc(-c2ncn(S(=O)(=O)c3ccc(-c4ccccc4)cc3)n2)cc1,half-life,[4],0.288 h
C#CCCCC1CCC(=O)CC1=O (configuration not stated),K,[7],10 M⁻¹ s⁻¹
Nc1ncnc2c1ncn2[C@@H]1O[C@H](CN(CC[C@H](N)C(=O)O)S(=O)(=O)c2ccc(F)c([N+](=O)[O-])c2)[C@@H](O)[C@H]1O,half-life,[5],< 0.0333 h
C#CCOCCOCCOc1cccc(N2CCN(C(=O)CF)CC2)c1,half-life,[5],> 167 h
NC(=O)C(Cl)Br (configuration not stated),half-life,[5],< 1.67 h
CC(NS(=O)(=O)c1ccc(S(=O)(=O)F)cc1)c1cccc(S(N)(=O)=O)c1 (configuration not stated),Kinact,Carbonic anhydrase 2 [2],1.7 10^-5/s
same,pKi,Carbonic anhydrase 2 [3],> 5.30
CCSc1nc2sc3c(c2c(=O)n1CC)CCc1ccccc1-3,half-life,[5],0.683 h
same,pIC50,[6],5.31
NS(=O)(=O)c1cccc(CNC(=O)Cc2ccc(S(=O)(=O)F)cc2)c1,Kinact,Carbonic anhydrase 2 [2],0.73 10^-5/s
same,pKi,Carbonic anhydrase 2 [3],> 5.30
NC(=O)C(F)Br (configuration not stated),half-life,[5],0.15 h
O=C(NCCc1cccc(F)c1)[C@@H](c1cncnc1)N(C(=O)[C@@H](F)Cl)c1ccc(S(F)(F)(F)(F)F)cc1,pKi,[8],4.27
same,Kin,[9],1.1 10^-3/s
O=S(=O)(c1ccc(F)cc1)n1cnc(-c2ccccc2)n1,half-life,[10],0.108 h
same,Kinact,[11],4.8 10^-4/s
same,Ratio,[12],8.4 10^2/M/s
CN(C(=O)C12CC1C2)c1ccccc1 (configuration not stated),half-life,[5],32.7 h
O=S(=O)(c1ccc(F)cc1)n1cnc(-c2ccc(Br)cc2)n1,half-life,[10],0.11 h
C#CCNC(=O)c1ccc(S(=O)(=O)N[C@@H](CCCCNC(=O)c2cncc(OS(=O)(=O)F)c2)C(=O)N[C@@H](CCCNC(=N)N)C(=O)NC2CCC2)cc1,Ratio,[13],2.9 M⁻¹ s⁻¹
same,Kinact,[14],2.83 10^-4/s
C#CCOCCOCCOc1cccc(N2CCN(C(=O)C(F)(F)Br)CC2)c1,half-life,[5],33.4 h
CCCSc1nc2sc3c(c2c(=O)n1CC)CCc1ccccc1-3,half-life,[5],0.683 h
COc1ccc(-c2ncn(S(=O)(=O)c3cccnc3)n2)cc1,half-life,[4],0.0267 h
CC#CC1=Nc2ccccc2C(C)(C)N1,half-life,[15],> 167 h
same,half-life,[5],0.025 h
NC(=O)CCl,half-life,[16],0.04 h
same,half-life,[5],< 1.67 h
Cc1ccc(S(=O)(=O)OCC(=O)NCc2ccccc2)cc1,K,[17],0.161 M⁻¹ s⁻¹
Nc1ncnc2c1ncn2[C@@H]1O[C@H](CN(CC[C@H](N)C(=O)O)S(=O)(=O)c2ccc(Cl)c([N+](=O)[O-])c2)[C@@H](O)[C@H]1O,half-life,[5],< 0.0333 h
NS(=O)(=O)c1cccc(CNS(=O)(=O)c2ccc(S(=O)(=O)F)cc2)c1,Kinact,Carbonic anhydrase 2 [2],9.6 10^-5/s
same,pKi,Carbonic anhydrase 2 [3],> 5.30
NS(=O)(=O)c1cccc(CNC(=O)c2cccc(S(=O)(=O)F)c2)c1,Kinact,Carbonic anhydrase 2 [2],21 10^-5/s
same,pKi,Carbonic anhydrase 2 [3],> 5.30
C#CCOCCOCCOc1cccc(N2CCN(C(=O)C(C)(F)Br)CC2)c1 (configuration not stated),half-life,[5],> 167 h
NS(=O)(=O)c1ccc(CCNC(=O)c2cccc(S(=O)(=O)F)c2)cc1,Kinact,Carbonic anhydrase 2 [2],0.51 10^-5/s
same,pKi,Carbonic anhydrase 2 [3],> 5.30
C=CC(=O)NCc1ccccc1,K,[17],0.003 M⁻¹ s⁻¹
CC(=O)N(C)c1ccccc1,half-life,[5],0.333 h
C#Cc1cccc(Oc2ccc(-c3nn(CCc4ccccc4N(C)C(=O)C45CC4C5)c4ncnc(N)c34)cc2)c1 (configuration not stated),half-life,[5],32.7 h
same,V0,[18],9.7 10^-5/s
CC#CC1=Nc2ccccc2C(C)(C)O1,half-life,[15],> 167 h
same,half-life,[5],1.37 h
C#Cc1cc(OC)c(-c2ccc3nc(NC(=O)NCO)sc3c2)cc1C=O,pKi,[19],7.89
same,Kinact,[20],1.27 10^-3/s
COc1cc(S(=O)(=O)F)ccc1-c1c[nH]c2ncc(-c3cncc(C(=O)N(C)C)c3)cc12,pIC50,[21],7.14
NS(=O)(=O)c1ccc(CCNC(=O)Cc2ccc(S(=O)(=O)F)cc2)cc1,Kinact,Carbonic anhydrase 2 [2],0.36 10^-5/s
same,pKi,Carbonic anhydrase 2 [3],> 5.30
C#CCOCCOCCOc1cccc(N2CCN(C(=O)C(F)F)CC2)c1,half-life,[5],129 h
NS(=O)(=O)c1ccc(CCNS(=O)(=O)c2ccc(S(=O)(=O)F)cc2)cc1,Kinact,Carbonic anhydrase 2 [2],2.1 10^-5/s
same,pKi,Carbonic anhydrase 2 [3],> 5.30
CC(NC(=O)Cc1ccc(S(=O)(=O)F)cc1)c1cccc(S(N)(=O)=O)c1 (configuration not stated),Kinact,Carbonic anhydrase 2 [2],0.97 10^-5/s
same,pKi,Carbonic anhydrase 2 [3],4.66
O=C(COS(=O)(=O)Nc1ccccc1)NCc1ccccc1,K,[17],0.009 M⁻¹ s⁻¹
NS(=O)(=O)c1cccc(CNC(=O)c2ccc(S(=O)(=O)F)cc2)c1,Kinact,Carbonic anhydrase 2 [2],12 10^-5/s
same,pKi,Carbonic anhydrase 2 [3],> 5.30
CC(NC(=O)c1cccc(S(=O)(=O)F)c1)c1cccc(S(N)(=O)=O)c1 (configuration not stated),Kinact,Carbonic anhydrase 2 [2],0.24 10^-5/s
same,pKi,Carbonic anhydrase 2 [3],4.28
O=C(NCCc1cccc(F)c1)[C@H](c1cncnc1)N(C(=O)[C@H](F)Cl)c1ccc(S(F)(F)(F)(F)F)cc1,pKi,[8],4.19
same,Kinact,[9],4.3 10^-3/s
Nc1ncnc2c1nc(Sc1cc3c(cc1I)OCO3)n2C[C@@H]1CCCN(Cc2cccc(S(=O)(=O)F)c2)C1,T1/2,Homo sapiens [22],3.33 h
same,Kinact,Homo sapiens [23],6.67 10^-5/s
O=C(CCl)NCc1ccccc1,K,[17],0.08 M⁻¹ s⁻¹
CN(C)C/C=C/C(N)=O,half-life,[16],0.51 h
O=C(COS(=O)(=O)NCc1ccccc1)NCc1ccccc1,K,[17],0.02 M⁻¹ s⁻¹
same,half-life at up to 200 µM,[24],~12 h
COc1ccc(-c2ncn(S(=O)(=O)C3CC3)n2)cc1,half-life,[4],> 6 h
CNS(=O)(=O)OCC(=O)NCc1ccccc1,K,[17],0.029 M⁻¹ s⁻¹
same,half-life at up to 200 µM,[24],~5 h
NS(=O)(=O)c1ccc(CCNC(=O)c2ccc(S(=O)(=O)F)cc2)cc1,Kinact,Carbonic anhydrase 2 [2],0.89 10^-5/s
same,pKi,Carbonic anhydrase 2 [3],> 5.30
C#CCCC(=O)C(SC[C@H](NC(=O)OCc1ccccc1)C(=O)N[C@H](C(=O)OC)C(C)C)[P+](c1ccccc1)(c1ccccc1)c1ccccc1 (some centres not stated),K,[7],15000 M⁻¹ s⁻¹
O=C(COS(=O)(=O)Nc1ccc(Br)cc1)NCc1ccccc1,K,[17],0.003 M⁻¹ s⁻¹
NC(=O)C(F)Cl (configuration not stated),half-life,[16],4.4 h
same,half-life,[5],17 h
C#CCCCN1c2ccccc2C(=O)CS1(=O)=O,K,[7],1700 M⁻¹ s⁻¹
COc1ccc(-c2ncn(S(=O)(=O)c3ccc(F)cc3)n2)cc1,half-life,[10],0.237 h
O=C(NCCc1cccc(F)c1)[C@@H](c1cncnc1)N(C(=O)[C@H](F)Cl)c1ccc(S(F)(F)(F)(F)F)cc1,pKi,[8],5.87
same,Kinact,[9],5.6 10^-3/s
NC(=O)C(Br)Br,half-life,[5],< 1.67 h
Nc1ncnc2c1nc(Sc1cc3c(cc1I)OCO3)n2C[C@H]1CCCN(Cc2cccc(S(=O)(=O)F)c2)C1,T1/2,Homo sapiens [22],0.0833 h
same,Kinact,Homo sapiens [23],2.17 10^-3/s
CS(=O)(=O)OCC(=O)NCc1ccccc1,K,[17],0.134 M⁻¹ s⁻¹
CN(C)S(=O)(=O)OCC(=O)NCc1ccccc1,K,[17],0.012 M⁻¹ s⁻¹
O=S(=O)(c1ccccc1)C12CC1C2 (configuration not stated),half-life,[5],11.8 h
C#CCN(C)C(=O)c1cncc(-c2cnc3[nH]cc(-c4cc(C=O)c(C#C)cc4OC)c3c2)c1,pIC50,[21],8.55
same,pKi,[19],5.49
same,Kinact,[20],5.54 10^-3/s
CC(NS(=O)(=O)c1cccc(S(=O)(=O)F)c1)c1cccc(S(N)(=O)=O)c1 (configuration not stated),Kinact,Carbonic anhydrase 2 [2],3.9 10^-5/s
same,pKi,Carbonic anhydrase 2 [3],4.92
